Laboratory results reported in US20240108740A1, “THERAPEUTIC COMPOSITIONS INCLUDING SPN10 AND USES THEREOF” (Stealth BioTherapeutics Inc., priority 2022, published 2024).
Residues, ends and D or L forms follow the SMILES beside them.

Columns and labels:
N2A cells = test: Example 23: caspase activity (FLICA kit); format: cell-based; parameters: dose or concentration left out as unconfirmed; conditions: 12 hours
Method: N2A cells will be grown on 96-well plates, treated with t-BHP (0.05 mM) in the presence of vehicle, peptide conjugates, aromatic-cationic peptides, or SPN10(s) with or without aromatic-cationic peptides at 37° C. for 12-24 hours. All treatments will be carried out in quadruplicate. N2A cells will be incubated with t-BHP ([…]) alone or in the presence of peptide conjugates, aromatic-cationic peptides, or SPN10(s) with or without aromatic-cationic peptides at 37° C. for 12 hours. Cells will be gently lifted from the plates with a cell detachment solution (Accutase, Innovative Cell Technologies, Inc., San Diego, CA, U.S.A.) and will be washed twice in PBS. Caspase activity will be assayed using a FLICA kit (Immunochemistry Technologies LLC, Bloomington, MN). According to the manufacturer's recommendation, cells will be resuspended (approx. 5×10^6 cells/mL) in PBS and labeled with pan-caspase inhibitor FAM-VAD-FMK for 1 hour at 37° C. under 5% CO2 while protected from light. Cells will then be rinsed to remove the unbound reagent and fixed. Fluorescence intensity in the cells will be measured by a laser scanning cytometer (Beckman-Coulter XL, Beckman Coulter, Inc., Fullerton, CA, U.S.A.) using the standard emission filters for green (FL1). For each run, 10,000 individual events will be collected and stored in list-mode files for off-line analysis.

Sprague-Dawley rats = test: Example 32: mitochondrial dysfunction in rats fed a high-fat diet; conditions: rat, in vivo
Method: Animals and reagents. Thirty male Sprague-Dawley rats will be obtained from Charles River Laboratory (Wilmington, MA) and housed in a temperature (22° C.) and light controlled room with free access to food and water. Twenty of the animals will be maintained on a high (60%) fat diet (Research Dyets, Bethlehem, PA). Skeletal muscle will be obtained from anesthetized animals (100 mg/kg i.p. ketamine-xylazine). After surgery, animals will be sacrificed by cervical dislocation while anesthetized. Amplex Red Ultra reagent will be obtained from Molecular Probes (Eugene, OR). Stigmatellin and horseradish peroxidase (HRP) will be obtained from Fluka Biochemika (Buchs, Switzerland). All other chemicals will be purchased from Sigma-Aldrich (St. Louis, MO). […]
Mitochondrial respiration and H2O2 production measurements. […] Mitochondrial H2O2 production will be measured at 30° C. during state 4 respiration in buffer Z (10 μg/mL oligomycin) by continuously monitoring oxidation of Amplex Red using a Spex Fluoromax 3 (Jobin Yvon, Ltd.) spectrofluorometer with temperature control and magnetic stirring at >1000 rpm. […] After baseline fluorescence (reactants only) is established, the reaction will be initiated by addition of a permeabilized fiber bundle to 300 μL of buffer Z containing 5 μM Amplex Red and 0.5 U/mL HRP, with succinate at […]. […]

murine burn injury model = test: Example 48: skeletal muscle redox state after burn injury (nitroxide EPR); format: in vivo, mouse; conditions: 6-hour time point; i.p. 30 minutes before and immediately after burn
Method: The redox state of the gastrocnemius muscle immediately below a local cutaneous burn (90° C. for 3 sec) will be evaluated by nitroxide EPR. It is anticipated that the redox state in the muscle will be compromised by burn injury, with the most dramatic effect at 6 hours post-burn.
Peptide conjugates (3 mg/kg), aromatic-cationic peptides (an equivalent molar dose of aromatic-cationic peptide based on the concentration of the aromatic-cationic peptide administered in the peptide conjugate treatment group), SPN10(s) (an equivalent molar dose of SPN10 based on the concentration of SPN10 administered in the peptide conjugate treatment group) or SPN10(s) in combination with aromatic-cationic peptides (e.g., an equivalent molar dose of SPN10 based on the concentration of SPN10 administered in the peptide conjugate treatment group and an equivalent molar dose of aromatic-cationic peptide based on the concentration of aromatic-cationic peptide administered in the peptide conjugate treatment group) will be administered i.p. 30 minutes before burn, and immediately after burn.

## N=C(N)NCCC[C@H](NC(=O)[C@@H](N)Cc1c[nH]c2ccccc12)C(=O)N[C@@H](Cc1c[nH]c2ccccc12)C(=O)N[C@@H](CCCCN)C(N)=O [SPN10, H-L-Trp-L-Arg-L-Trp-L-Lys-NH2] (H-WRWK-NH2)
N2A cells
  increase in caspase activity by t-BHP: dose-dependently inhibited
Sprague-Dawley rats
  mitochondrial dysfunction under a high-fat diet: reduce mitochondrial dysfunction
Murine burn injury model
  rate of nitroxide reduction in muscle beneath the burn: significantly increase the rate of nitroxide reduction
